Experimental data published in patent publication US8598114B2, “Antimicrobial compounds” (priority 2007, dated 2013).
Several values for one entry are separate records, joined by “and”; a condition that tells them apart may be missing. Equal entries are not always repeated.

How the values were obtained:
Pseudomonas aeruginosa = test: MIC, CLSI microbroth dilution (aerobic bacteria); type: cell-based; design: unit not given beside the values
Source text: (§1) Cation-adjusted Mueller-Hinton broth (Oxoid Ltd., Basingstoke, UK and Trek Diagnostic Systems Ltd., East Grinstead, UK) (supplemented with 5% laked horse blood for Streptococcus spp., Corynebacterium jeikeium and Listeria monocytogenes) was used for aerobic bacteria, with an initial inoculum of approximately 10^5 colony-forming units (CFU)/mL.
(§2) To evaluate whether freezing affected the activity of the peptides some MIC determinations were repeated using plates containing freshly-prepared Mueller-Hinton broth.

Escherichia coli = test: MIC, CLSI microbroth dilution (aerobic bacteria); type: cell-based; design: unit not given beside the values
Source text: as §1, §2

Enterococcus faecalis = test: MIC, CLSI microbroth dilution (aerobic bacteria); type: cell-based; design: unit not given beside the values
Source text: as §1, §2

Salmonella sp = test: MIC, CLSI microbroth dilution (aerobic bacteria); type: cell-based; design: unit not given beside the values
Source text: as §1

Streptococcus mitis = test: MIC, CLSI microbroth dilution (aerobic bacteria); type: cell-based; design: unit not given beside the values
Source text: as §1

[1] = system: Staphylococcus epidermidis; test: MIC, CLSI microbroth dilution (aerobic bacteria); type: cell-based; design: unit not given beside the values
Source text: as §1

Streptococcus pneumoniae = test: MIC, CLSI microbroth dilution (aerobic bacteria); type: cell-based; design: unit not given beside the values
Source text: as §1

Streptococcus sanguis = test: MIC, CLSI microbroth dilution (aerobic bacteria); type: cell-based; design: unit not given beside the values
Source text: as §1

Morganella morganii = test: MIC, CLSI microbroth dilution (aerobic bacteria); type: cell-based; design: unit not given beside the values; settings: Morganella morganii - multi-drug resistant clinical isolate
Source text: as §1

Streptococcus bovis = test: MIC, CLSI microbroth dilution (aerobic bacteria); type: cell-based; design: unit not given beside the values
Source text: as §1

Moraxella catarrhalis = test: MIC, CLSI microbroth dilution (aerobic bacteria); type: cell-based; design: unit not given beside the values
Source text: as §1

Enterobacter sp = test: MIC, CLSI microbroth dilution (aerobic bacteria); type: cell-based; design: unit not given beside the values
Source text: as §1

Group G Streptococcus = test: MIC, CLSI microbroth dilution (aerobic bacteria); type: cell-based; design: unit not given beside the values
Source text: as §1

Klebsiella aerogenes = test: MIC, CLSI microbroth dilution (aerobic bacteria); type: cell-based; design: unit not given beside the values
Source text: as §1

Listeria monocytogenes = test: MIC, CLSI microbroth dilution (aerobic bacteria); type: cell-based; design: unit not given beside the values; settings: Listeria monocytogenes - antibiotic-susceptible clinical isolate
Source text: as §1

[2] = system: Stenotrophomonas maltophilia; test: MIC, CLSI microbroth dilution (aerobic bacteria); type: cell-based; design: unit not given beside the values; settings: Stenotrophomonas maltophilia - antibiotic-susceptible clinical isolate
Source text: as §1

Streptococcus agalactiae = test: MIC, CLSI microbroth dilution (aerobic bacteria); type: cell-based; design: unit not given beside the values
Source text: as §1

[3] = system: Staphylococcus saprophyticus; test: MIC, CLSI microbroth dilution (aerobic bacteria); type: cell-based; design: unit not given beside the values; settings: Staphylococcus saprophyticus - antibiotic susceptible clinical isolate
Source text: as §1

Streptococcus oralis = test: MIC, CLSI microbroth dilution (aerobic bacteria); type: cell-based; design: unit not given beside the values
Source text: as §1

trypsin = test: in vitro; type: in vitro ADME; settings: pH 8.6
Experimental: Measurements and Calculation of Peptide Half-Life
Each peptide was dissolved in a 0.1 M NH4HCO3 buffer (pH 6.5) to yield a final peptide concentration of 1 mg/ml. A trypsin solution was prepared by dissolving 1 mg of trypsin in 50 ml 0.1 M NH4HCO3 buffer (pH 8.2). For the stability determination, 250 μl freshly made trypsin solution and 250 μl peptide solution were incubated in 2 ml of 0.1 M NH4HCO3 buffer (pH 8.6) at 37° C. on a rocking table. Aliquots of 0.5 ml were sampled at different time intervals, diluted with 0.5 ml water:acetonitrile (60:40 v/v) containing 1% TFA and analysed by RP-HPLC as described above. Samples without trypsin addition taken at 0 h and after 20 h at 37° C. were used as negative controls. Integration of the peak area at 254 nm for samples taken during the first 5 hours of the assay was used to generate the τ1/2.

Eggerthella lenta = test: MIC, CLSI microbroth dilution (anaerobic bacteria); type: cell-based; design: unit not given here; settings: Eggerthella lenta - ATCC 43055, SBB (Table 2)
Aspergillus niger = test: MIC, CLSI microbroth dilution (filamentous fungi); type: cell-based; design: unit not given beside the values; settings: Aspergillus niger - G.R. Micro collection
Experimental: (§3) M38-A Vol. 22 No. 16 Reference Method for Broth Dilution Antifungal Susceptibility Testing of Filamentous Fungi; Approved Standard.
(§4) Yeast and filamentous fungal MIC were performed in MOPS buffered RPMI 1640 medium (MOPS buffer obtained from Sigma Aldrich Ltd., RPMI 1640 obtained from Invitrogen Ltd, Paisley, Scotland). The yeast inocula were in the range 7.5×10^2-4×10^3 CFU/mL and the filamentous fungi approximately 8×10^3-1×10^5CFU/mL

[4] = system: Trichophyton interdigitale; test: MIC, CLSI microbroth dilution (filamentous fungi); type: cell-based; design: unit not given beside the values; settings: Trichophyton interdigitale - G.R. Micro collection
Experimental: as §3, §4

[5] = system: Trichophyton mentagrophytes; test: MIC, CLSI microbroth dilution (filamentous fungi); type: cell-based; design: unit not given beside the values; settings: Trichophyton mentagrophytes - G.R. Micro collection
Experimental: as §3, §4

N=C(N)NCCCC(N)C(=O)NC(Cc1ccc(-c2ccc3ccccc3c2)cc1)C(=O)NC(CCCNC(=N)N)C(=O)NCCc1ccccc1 (stereo not shown) [Compound 1]
16 and 32: MIC (Pseudomonas aeruginosa; GN10 Pseudomonas aeruginosa ATCC 27853 type strain, repeat results (Table 2), Frozen MHB)
2: MIC ([1]; Staphylococcus epidermidis methicillin-resistant clinical isolate)
1: MIC [3]
4: MIC (Enterococcus faecalis; Enterococcus faecalis - ATCC 29212 antibiotic-susceptible control (Table 1)) | MIC (Enterococcus faecalis; GP11 Enterococcus faecalis - ATCC 29212 control strain, repeat results (Table 2), Fresh MHB) | MIC (Moraxella catarrhalis; Moraxella catarrhalis - β-lactamase positive clinical isolate) | MIC (Aspergillus niger)
64: MIC (Streptococcus mitis; Streptococcus mitis - antibiotic-susceptible clinical isolate) | MIC (Streptococcus pneumoniae; Streptococcus pneumoniae - multi-drug resistant clinical isolate) | MIC (Streptococcus pneumoniae; Streptococcus pneumoniae - penicillin-susceptible clinical isolate) | MIC (Streptococcus sanguis; Streptococcus sanguis - antibiotic-susceptible clinical isolate) | MIC (Streptococcus bovis; Streptococcus bovis - antibiotic-susceptible clinical isolate) | MIC (Enterobacter sp; Enterobacter sp - multi-drug resistant clinical isolate) | MIC (Klebsiella aerogenes; Klebsiella aerogenes - multi-drug resistant clinical isolate) | MIC [2] | MIC (Streptococcus oralis; Streptococcus oralis - antibiotic-susceptible clinical isolate)
> 1440 min: half-life at 0.1 mg/ml (trypsin)
32: MIC (Pseudomonas aeruginosa; Pseudomonas aeruginosa - multi-drug resistant clinical isolate) | MIC (Escherichia coli; Escherichia coli - multi-drug resistant clinical isolate) | MIC (Escherichia coli; Escherichia coli ATCC25922 - antibiotic-susceptible type strain) | MIC (Escherichia coli; Escherichia coli ATCC32518 - β-lactamase positive type strain) | MIC (Escherichia coli; GN01 Escherichia coli ATCC 25922 type strain, repeat results (Table 2), Frozen MHB) | MIC (Streptococcus pneumoniae; Streptococcus pneumoniae - ATCC 49619 antibiotic-susceptible control) | MIC (Streptococcus pneumoniae; Streptococcus pneumoniae - penicillin-resistant clinical isolate) | MIC (Streptococcus pneumoniae; Streptococcus pneumoniae -penicillin-intermediate clinical isolate) | MIC (Streptococcus sanguis; Streptococcus sanguis - macrolide-resistant clinical isolate) | MIC (Enterobacter sp; Enterobacter sp - antibiotic-susceptible clinical isolate) | MIC (Group G Streptococcus; Group G Streptococcus - antibiotic-susceptible clinical isolate) | MIC (Group G Streptococcus; Group G Streptococcus - macrolide-resistant clinical isolate) | MIC (Klebsiella aerogenes; Klebsiella aerogenes NCTC11228 - antibiotic-susceptible type strain) | MIC (Listeria monocytogenes) | MIC (Streptococcus agalactiae; Streptococcus agalactiae - macrolide-resistant clinical isolate) | MIC (Streptococcus oralis; Streptococcus oralis - macrolide-resistant clinical isolate)
8: MIC (Pseudomonas aeruginosa; GN10 Pseudomonas aeruginosa ATCC 27853 type strain, repeat results (Table 2), Fresh MHB) | MIC (Enterococcus faecalis; Enterococcus faecalis vancomycin-susceptible clinical isolate) | MIC (Enterococcus faecalis; GP11 Enterococcus faecalis - ATCC 29212 control strain, repeat results (Table 2), Frozen MHB) | MIC (Streptococcus bovis; Streptococcus bovis - macrolide-resistant clinical isolate) | MIC (Moraxella catarrhalis; Moraxella catarrhalis - reduced fluoroquinolone susceptibility clinical) | MIC [4]
≧128: MIC (Streptococcus mitis; Streptococcus mitis - macrolide-resistant clinical isolate) | MIC (Morganella morganii)
16: MIC (Pseudomonas aeruginosa; Pseudomonas aeruginosa ATCC27853 - antibiotic-susceptible type) | MIC (Escherichia coli; GN01 Escherichia coli ATCC 25922 type strain, repeat results (Table 2), Fresh MHB) | MIC (Enterococcus faecalis; Enterococcus faecalis high-level gentamicin-resistant clinical isolate) | MIC (Enterococcus faecalis; Enterococcus faecalis vancomycin-resistant (VanA) clinical isolate) | MIC (Enterococcus faecalis; Enterococcus faecalis vancomycin-resistant (VanB) clinical isolate) | MIC (Salmonella sp; Salmonella sp - antibiotic-susceptible clinical isolate) | MIC (Salmonella sp; Salmonella sp - multi-drug resistant clinical isolate) | MIC ([1]; Staphylococcus epidermidis antibiotic susceptible clinical isolate) | MIC (Streptococcus agalactiae; Streptococcus agalactiae - antibiotic-susceptible clinical isolate) | MIC (Eggerthella lenta) | MIC [5]
